Measurements reported in ChEMBL document CHEMBL3994622, “Design and synthesis of new RAF kinase-inhibiting antiproliferative quinoline derivatives. Part 2: Diarylurea derivatives” (Eur J Med Chem, 2017).

Columns and labels:
Assay type in all cases: functional
OVCAR-4 [1] = assay: Growth inhibition of human OVCAR4 cells assessed as cell growth at 0.01 uM incubated for 48 hrs by sulforhodamine B assay relative to control; settings: OVCAR-4, 48 h, read-out: Activity
TK-10 = assay: Growth inhibition of human TK10 cells assessed as cell growth at 1 uM incubated for 48 hrs by sulforhodamine B assay relative to control; settings: TK-10, 48 h, read-out: Activity
NCI-H322M = assay: Growth inhibition of human NCI-H322M cells assessed as cell growth at 100 uM incubated for 48 hrs by sulforhodamine B assay relative to control; settings: read-out: Activity
U-251 [2] = assay: Growth inhibition of human U251 cells assessed as cell growth at 0.1 uM incubated for 48 hrs by sulforhodamine B assay relative to control; settings: U-251, 48 h, read-out: Activity
ACHN = assay: Growth inhibition of human ACHN cells assessed as cell growth at 10 uM incubated for 48 hrs by sulforhodamine B assay relative to control; settings: read-out: Activity
M14 = assay: Growth inhibition of human M14 cells assessed as cell growth at 10 uM incubated for 48 hrs by sulforhodamine B assay relative to control; settings: M14, 48 h, read-out: Activity
COLO 205 [3] = assay: Growth inhibition of human COLO205 cells assessed as cell growth at 0.01 uM incubated for 48 hrs by sulforhodamine B assay relative to control; settings: COLO 205, 48 h, read-out: Activity
HOP-92 = assay: Growth inhibition of human HOP92 cells assessed as cell growth at 100 uM incubated for 48 hrs by sulforhodamine B assay relative to control; settings: HOP-92, 48 h, read-out: Activity
NCI-H226 = assay: Growth inhibition of human NCI-H226 cells assessed as cell growth at 0.01 uM incubated for 48 hrs by sulforhodamine B assay relative to control; settings: NCI-H226, 48 h, read-out: Activity
UO-31 = assay: Growth inhibition of human UO31 cells assessed as cell growth at 1 uM incubated for 48 hrs by sulforhodamine B assay relative to control; settings: UO-31, 48 h, read-out: Activity
U-251 [4] = assay: Growth inhibition of human U251 cells assessed as cell growth at 10 uM incubated for 48 hrs by sulforhodamine B assay relative to control; settings: U-251, 48 h, read-out: Activity
COLO 205 [5] = assay: Growth inhibition of human COLO205 cells assessed as cell growth at 1 uM incubated for 48 hrs by sulforhodamine B assay relative to control; settings: COLO 205, 48 h, read-out: Activity
DU-145 [6] = assay: Growth inhibition of human DU145 cells assessed as cell growth at 100 uM incubated for 48 hrs by sulforhodamine B assay relative to control; settings: DU-145, 48 h, read-out: Activity
Hs-578T = assay: Growth inhibition of human Hs 578T cells assessed as cell growth at 0.1 uM incubated for 48 hrs by sulforhodamine B assay relative to control; settings: read-out: Activity
CAKI-1 = assay: Growth inhibition of human Caki1 cells assessed as cell growth at 100 uM incubated for 48 hrs by sulforhodamine B assay relative to control; settings: CAKI-1, 48 h, read-out: Activity
T47D [7] = assay: Growth inhibition of human T47D cells assessed as cell growth at 1 uM incubated for 48 hrs by sulforhodamine B assay relative to control; settings: read-out: Activity
PC-3 = assay: Growth inhibition of human PC3 cells assessed as cell growth at 0.03 uM incubated for 48 hrs by sulforhodamine B assay relative to control; settings: PC-3, 48 h, read-out: Activity
A498 = assay: Growth inhibition of human A498 cells assessed as cell growth at 0.003 uM incubated for 48 hrs by sulforhodamine B assay relative to control; settings: A498, 48 h, read-out: Activity
K562 = assay: Growth inhibition of human K562 cells assessed as cell growth at 30 uM incubated for 48 hrs by sulforhodamine B assay relative to control; settings: K562, 48 h, read-out: Activity
MCF7 = assay: Growth inhibition of human MCF7 cells assessed as cell growth at 0.03 uM incubated for 48 hrs by sulforhodamine B assay relative to control; settings: MCF7, 48 h, read-out: Activity
MOLT-4 [8] = assay: Growth inhibition of human MOLT4 cells assessed as cell growth at 30 uM incubated for 48 hrs by sulforhodamine B assay relative to control; settings: MOLT-4, 48 h, read-out: Activity
RXF 393 = assay: Growth inhibition of human RXF393 cells assessed as cell growth at 30 uM incubated for 48 hrs by sulforhodamine B assay relative to control; settings: RXF 393, 48 h, read-out: Activity
NCI/ADR-RES [9] = assay: Growth inhibition of human NCI/ADR-RES cells assessed as cell growth at 0.003 uM incubated for 48 hrs by sulforhodamine B assay relative to control; settings: read-out: Activity
HCT-15 = assay: Growth inhibition of human HCT15 cells assessed as cell growth at 30 uM incubated for 48 hrs by sulforhodamine B assay relative to control; settings: HCT-15, 48 h, read-out: Activity
CCRF-CEM [10] = assay: Growth inhibition of human CCRF-CEM cells assessed as cell growth at 0.3 uM incubated for 48 hrs by sulforhodamine B assay relative to control; settings: read-out: Activity
U-251 [11] = assay: Growth inhibition of human U251 cells assessed as cell growth at 0.3 uM incubated for 48 hrs by sulforhodamine B assay relative to control; settings: U-251, 48 h, read-out: Activity
NCI-H522 = assay: Growth inhibition of human NCI-H522 cells assessed as cell growth at 0.003 uM incubated for 48 hrs by sulforhodamine B assay relative to control; settings: NCI-H522, 48 h, read-out: Activity
CCRF-CEM [12] = assay: Growth inhibition of human CCRF-CEM cells assessed as cell growth at 0.003 uM incubated for 48 hrs by sulforhodamine B assay relative to control; settings: read-out: Activity
T47D [13] = assay: Growth inhibition of human T47D cells assessed as cell growth at 3 uM incubated for 48 hrs by sulforhodamine B assay relative to control; settings: read-out: Activity
OVCAR-4 [14] = assay: Growth inhibition of human OVCAR4 cells assessed as cell growth at 0.003 uM incubated for 48 hrs by sulforhodamine B assay relative to control; settings: OVCAR-4, 48 h, read-out: Activity
MDA-MB-435 = assay: Growth inhibition of human MDA-MB-435 cells assessed as cell growth at 30 uM incubated for 48 hrs by sulforhodamine B assay relative to control; settings: MDA-MB-435, 48 h, read-out: Activity
OVCAR-4 [15] = assay: Growth inhibition of human OVCAR4 cells assessed as cell growth at 0.03 uM incubated for 48 hrs by sulforhodamine B assay relative to control; settings: OVCAR-4, 48 h, read-out: Activity
DU-145 [16] = assay: Growth inhibition of human DU145 cells assessed as cell growth at 0.3 uM incubated for 48 hrs by sulforhodamine B assay relative to control; settings: DU-145, 48 h, read-out: Activity
MOLT-4 [17] = assay: Growth inhibition of human MOLT4 cells assessed as cell growth at 0.03 uM incubated for 48 hrs by sulforhodamine B assay relative to control; settings: MOLT-4, 48 h, read-out: Activity
UACC-62 = assay: Growth inhibition of human UACC62 cells assessed as cell growth at 0.3 uM incubated for 48 hrs by sulforhodamine B assay relative to control; settings: UACC-62, 48 h, read-out: Activity
NCI/ADR-RES [18] = assay: Growth inhibition of human NCI/ADR-RES cells assessed as cell growth at 30 uM incubated for 48 hrs by sulforhodamine B assay relative to control; settings: read-out: Activity

| SMILES | growth at 0.01 µM (OVCAR-4 [1]) | growth at 1 µM (TK-10) | growth at 100 µM (NCI-H322M) | growth at 0.1 µM (U-251 [2]) | growth at 10 µM (ACHN) | growth at 10 µM (M14) | growth at 0.01 µM (COLO 205 [3]) | growth at 100 µM (HOP-92) | growth at 0.01 µM (NCI-H226) | growth at 1 µM (UO-31) | growth at 10 µM (U-251 [4]) | growth at 1 µM (COLO 205 [5]) | growth at 100 µM (DU-145 [6]) | growth at 0.1 µM (Hs-578T) | growth at 100 µM (CAKI-1) | growth at 1 µM (T47D [7]) | growth at 0.03 µM (PC-3) | growth at 0.003 µM (A498) | growth at 30 µM (K562) | growth at 0.03 µM (MCF7) | further results |
| --- | --- | --- | --- | --- | --- | --- | --- | --- | --- | --- | --- | --- | --- | --- | --- | --- | --- | --- | --- | --- | --- |
| COc1cc2cc(Oc3ccc(NC(=O)Nc4ccc(Cl)c(Cl)c4)cc3)c(C)nc2cc1OC | 95% | 114% | -13% | 93% | 5% | 2% | 106% | -100% | 104% | 100% | -13% | 109% | -64% | 99% | -64% | 88% | – | – | – | – | – |
| COc1cc2cc(Oc3ccc(NC(=O)Nc4cc(C(F)(F)F)cc(C(F)(F)F)c4)cc3)c(C)nc2cc1OC | 85% | 81% | -91% | 100% | -57% | -59% | 93% | -58% | 103% | 19% | -85% | 92% | -96% | 109% | -60% | 64% | – | – | – | – | – |
| COc1cc2cc(Oc3ccc(NC(=O)Nc4ccc(Cl)c(C(F)(F)F)c4)cc3)c(C)nc2cc1OC | – | – | – | – | – | – | – | – | – | – | – | – | – | – | – | – | 94% | 91% | -60% | 97% | growth at 30 µM (MOLT-4 [8]): -36%; growth at 30 µM (RXF 393): -80%; growth at 0.003 µM (NCI/ADR-RES [9]): 104%; growth at 30 µM (HCT-15): -76%; growth at 0.3 µM (CCRF-CEM [10]): 101%; growth at 0.3 µM (U-251 [11]): 94%; growth at 0.003 µM (NCI-H522): 91%; growth at 0.003 µM (CCRF-CEM [12]): 111%; growth at 3 µM (T47D [13]): 19%; growth at 0.003 µM (OVCAR-4 [14]): 93%; growth at 30 µM (MDA-MB-435): -46%; growth at 0.03 µM (OVCAR-4 [15]): 96%; growth at 0.3 µM (DU-145 [16]): 95%; growth at 0.03 µM (MOLT-4 [17]): 96%; growth at 0.3 µM (UACC-62): 81%; growth at 30 µM (NCI/ADR-RES [18]): -39% |
| Cc1nc2cc(O)c(O)cc2cc1Oc1ccc(NC(=O)Nc2ccc(Cl)c(Cl)c2)cc1 | – | – | – | – | – | – | – | – | – | – | – | – | – | – | – | – | 97% | 85% | -3% | 89% | growth at 30 µM (MOLT-4 [8]): 2%; growth at 30 µM (RXF 393): 7%; growth at 0.003 µM (NCI/ADR-RES [9]): 100%; growth at 30 µM (HCT-15): 9%; growth at 0.3 µM (CCRF-CEM [10]): 98%; growth at 0.3 µM (U-251 [11]): 87%; growth at 0.003 µM (NCI-H522): 95%; growth at 0.003 µM (CCRF-CEM [12]): 97%; growth at 3 µM (T47D [13]): 100%; growth at 0.003 µM (OVCAR-4 [14]): 97%; growth at 30 µM (MDA-MB-435): 7%; growth at 0.03 µM (OVCAR-4 [15]): 98%; growth at 0.3 µM (DU-145 [16]): 106%; growth at 0.03 µM (MOLT-4 [17]): 111%; growth at 0.3 µM (UACC-62): 100%; growth at 30 µM (NCI/ADR-RES [18]): 3% |
